Assay results: patent US20110183336A1, “Method to Predict Responsiveness of Breast Cancer to Polyamine-Type Chemotherapy” (THE REGENTS OF THE UNIVERSITY OF CALIFORNIA, priority 2007, published 2011)

Assays:
Type in all cases: cell-based, human
[1] = test system: AU565; assay: Cell growth inhibition assay (Cell Titer Glo); details: AU565, Luminal, 72 h
Protocol: (§1) Cell culture: Breast cell lines were obtained from the ATCC and from collections developed in the laboratories of Drs. Steve Ethier and Adi Gazdar.
(§2) Cell growth inhibition assay and data analysis: Cells were plated at proper density in 96-well plates such that they would remain in log growth at the end of assay time. The cells were allowed to attach overnight before being exposed to CGC-11047 for 72 h. Drugs were dissolved in water as 100 mM stock. For the dose response study, a set of 9 doses from 5×10^−3 to 1.3×10^−8 M (final concentration) in 1:5 serial dilution were added in triplicate wells. The final DMSO concentration in the treated well was 0.3% or less. The cell growth was determined using Cell Titer Glo (CTG) assay (CellTiter-Glo Luminescent Cell Viability Assay, Promega, Madison, Wis.), with slight modification form manufacturer's protocol, at day 0 (time when drug was added) and at day 3 of drug exposure. Briefly, CTG reagent was diluted with PBS (1:1, volume: volume) and the culture media was removed from the 96-well plate prior to adding 50 μl per well of the diluted CTG reagent. Luminescence from the assay was recorded using BIO-TEK FLx800.
(§3) Data calculations were made according to the method described by the NCI/NIH DTP Human Tumor Cell Line Screen Process (http://dtp.nci.nih.gov/branches/btb/ivclsp.html) and as described previously (Monks, A et al., JNCI 83:757-766, 1991). The percent growth curve is calculated as [(T−T0)/(C−T0)]×100, where T0 is the cell count at day 0, C is the vehicle control (e.g. 0.3% DMSO without drug) cell count at day 3, and T is the cell count at the test concentration. The GI50 and TGI value are determined as the drug concentration that results in a 50% and 0% growth at 72 h drug exposure. LC50 is calculated as [(T−T0)/T0]×100=−50, when T<T0.

[2] = test system: BT483; assay: Cell growth inhibition assay (Cell Titer Glo); details: BT483, Luminal, 72 h
Protocol: as §1, §2, §3

[3] = test system: HCC2185; assay: Cell growth inhibition assay (Cell Titer Glo); details: HCC2185, Luminal, 72 h
Protocol: as §1, §2, §3

[4] = test system: HCC3153; assay: Cell growth inhibition assay (Cell Titer Glo); details: HCC3153, Basal A, 72 h
Protocol: as §1, §2, §3

[5] = test system: Hs578T; assay: Cell growth inhibition assay (Cell Titer Glo); details: Basal B, 72 h
Protocol: as §1, §2, §3

[6] = test system: LY2; assay: Cell growth inhibition assay (Cell Titer Glo); details: LY2, Luminal, 72 h
Protocol: as §1, §2, §3

[7] = test system: SKBR3; assay: Cell growth inhibition assay (Cell Titer Glo); details: SKBR3, Luminal, 72 h
Protocol: as §1, §2, §3

[8] = test system: SUM1315MO2; assay: Cell growth inhibition assay (Cell Titer Glo); details: SUM1315MO2, Basal B, 72 h
Protocol: as §1, §2, §3

[9] = test system: SUM185PE; assay: Cell growth inhibition assay (Cell Titer Glo); details: Luminal, 72 h
Protocol: as §1, §2, §3

[10] = test system: T47D; assay: Cell growth inhibition assay (Cell Titer Glo); details: Luminal, 72 h
Protocol: as §1, §2, §3

[11] = test system: T4; assay: Cell growth inhibition assay (Cell Titer Glo); details: T4, Basal B, 72 h
Protocol: as §1, §2, §3

[12] = test system: ZR751; assay: Cell growth inhibition assay (Cell Titer Glo); details: ZR751, Luminal, 72 h
Protocol: as §1, §2, §3

[13] = test system: ZR7530; assay: Cell growth inhibition assay (Cell Titer Glo); details: ZR7530, Luminal, 72 h
Protocol: as §1, §2, §3

[14] = test system: T47D cells; assay: BrdU incorporation and cell cycle distribution; details: T47D (FIG. 5); 0.3, 10 and 300 uM; 48 and 72 hrs
Protocol: (§4) FIGS. 5A and 5B. Effect of CGC-11047 on T47D cells with respect to cell cycle and apoptosis. In FIG. 5A, cells were treated for 72 hours with 0, 0.3, 10, or 100 μM CGC-11047. Shown are percentage of the cell population is G0-G1, S, or G2-M phase of cell growth. In FIG. 5B, cells were treated for […], 48, or 72 hours with 0.3, 10, or 300 μM CGC-11047. Shown is the caspase activity (apoptosis) of treated cells within each condition compared to untreated controls.
BrdU cell staining and labeling: After incubation of cells with CGC-11047 at specified concentrations for 24, 48, and 72 hours, cells were pulsed with a final BrdU concentration of 10 uM for 30 minutes. Cells were then fixed with −20° C. 70% ethanol overnight. Fixed cells were incubated with 2N HCl for 5-7 minutes to denature DNA. Cell were then rinsed with 1× PBS to neutralize HCl.
Cells were incubated with primary donkey anti-BrdU antibody (diluted 1:100 in 0.5% PBS-tween20) for 1 hour then rinsed well with 0.5% PBS-tween20. Cells were incubated with Hoechst 33642 (diluted 1:2000) and secondary anti-donkey antibody (diluted 1:500) for 45 minutes and washed well with PBS-tween. […]
(§5) Select sensitive cell lines were treated with CGC-11047 at 0.3, 10 and 300 uM. BrdU incorporation was measured and cell cycle distribution was analyzed at 48 and 72 hrs. Apoptosis was measured using the Promega Caspase Glo 3/7 assay.

[15] = test system: T47D cells; assay: Caspase Glo 3/7 assay (apoptosis); details: T47D (FIG. 5); 0.3, 10 and 300 uM
Protocol: as §4
Caspase Glo assay: Apoptosis was measured using the Promega Caspase Glo 3/7 assay (Promega, Madison, Wis.). Lyophilized pellet was eluted in solvent to make working Caspase Glo reagent. After incubation of cells with CGC-11047 at specified concentrations for 24, 48, and 72 hours, 50 ul of Caspase Glo reagent was added to the wells. After an incubation time of 1 hour, luminescence was measured using a luminometer.
as §5

## CCNCCCNC/C=C\CNCCCNCC [CGC-11047]
[1]
  TGI: >30 µM
[1]; Homo sapiens
  GI50: 40 µM
[2]
  TGI: 1300 µM
[2]; Homo sapiens, BT-483
  GI50: 900 µM
[3]
  TGI: 500 µM
[3]; Homo sapiens
  GI50: 90 µM
[4]
  TGI: 8 µM
[4]; Homo sapiens
  GI50: 1.3 µM
[5]
  TGI: 500 µM
[5]; Homo sapiens, Hs-578T
  GI50: 0.4 µM
[6]; Homo sapiens
  GI50: 1300 µM
[6]
  TGI: 3000 µM
[7]; Homo sapiens, SK-BR-3
  GI50: 5000 µM
[7]
  TGI: >5000 µM
[8]; Homo sapiens
  GI50: 700 µM
[8]
  TGI: 1300 µM
[9]; Homo sapiens
  GI50: 300 µM
[9]
  TGI: >500 µM
[10]; Homo sapiens
  GI50: 0.4 µM
[10]
  TGI: 200 µM
[11]; Homo sapiens
  GI50: 2 µM
[11]
  TGI: 800 µM
[12]; Homo sapiens, ZR-75-1
  GI50: 13 µM
[12]
  TGI: 800 µM
[13]; Homo sapiens, ZR-75-30
  GI50: 0.8 µM
[13]
  TGI: 1000 µM
[14]
  cell cycle distribution / BrdU incorporation: very little changes in the cell cycle
[15]
  apoptosis (caspase 3/7 activity): significant accumulation of apoptosis
